{"source": "patent US7585460B2", "about": "“Method for inhibiting the biological acidification of water in contact with materials containing sulfur” (ENI S.p.A., priority 2003, dated 2009)", "assay_type_in_all_cases": "cell-based, Thiobacillus", "key": {"[1]": {"test_system": "Thiobacilli (consortium)", "assay": "Effect of different salts on acidification, TM medium with sulfur powder and inoculated mixed culture (Example 7)", "procedure": "The verification is aimed at discovering the effects deriving from the presence of different salts at varying concentrations on the same consortium.\nA series of 12 100 ml flasks containing 50 ml of TM medium (with 0.4 g of sulfur powder), was inoculated with 1 ml of mixed culture containing 10^8 cells/ml.\n• 3 control flasks containing TM and sulfur, with NaCl (0.16 M, 0.33 M, 0.56 M); • 3 flasks with TM, sulfur and Na2SO4 (0.12 M, 0.24 M, 0.56 M); • 3 flasks with TM, sulfur and KCl (0.13 M, 0.26 M, 0.56 M); • 3 flasks with TM, sulfur and KNO3 (0.09 M, 0.19 M, 0.56 M) The data collected are listed in Table 6."}, "[2]": {"test_system": "Thiobacilli", "assay": "Acidification of rainwater over submersed sulfur block wetted with Thiobacilli, outdoors (Example 8)", "conditions": "30 g/l NaCl", "procedure": "Two blocks of elemental sulfur with an upper surface of approximately 2500 cm^2 (8.5 Kg of sulfur) are positioned in two containers. The upper surface of each block of sulfur is wetted with 250 ml of a bacterial suspension of Thiobacilli containing over 10^8 bacteria per milliliter. The two blocks are subsequently submersed with rainwater. Sodium chloride is added to one of the containers until a concentration of 30 g/l is reached.\nThe containers are exposed to the outside environment for three months, care being taken to regularly replace the water possibly lost by evaporation. At the end of this period, the pH of the solution in the two containers is measured."}, "[3]": {"test_system": "Thiobacilli (microbial consortium)", "assay": "Comparison of NaCl and SLS, TM medium with sulfur flowers and inoculated mixed culture (Example 6)", "conditions": "for O.D. / p.H.: B: 33 g/l of NaCl", "procedure": "The experiment was aimed at comparing the action of SLS, a known bacteriostatic for Thiobacilli, and Sodium Chloride on the same microbial consortium.\nA series of 6 100 ml flasks containing 50 ml of TM medium (with 0.4 g of sulfur flowers), were inoculated with 1 ml of mixed culture containing 10^8 cells/ml.\n• A—2 control flasks containing TM and sulfur, without NaCl; • B—2 flasks with TM, sulfur and 33 g/l of NaCl; • C—2 flasks with TM, sulfur and 20 mg/l of SLS (concentration used in literature as bacteriostatic) The pH values and the bacterial growth were measured over a period of 34 days, by means of the increase in the absorbance."}}, "data": [{"smiles": "[Cl-].[Na+]", "note": "[NaCl, Sodium Chloride]", "values": [{"measurement": "PH", "setting": "[1]; salt 0.16 M, day 0", "value": 6.0}, {"measurement": "PH", "setting": "[1]; salt 0.16 M, day 2", "value": 6.0}, {"measurement": "PH", "setting": "[1]; salt 0.16 M, day 6", "value": 3.5}, {"measurement": "PH", "setting": "[1]; salt 0.16 M, day 9", "value": 2.8}, {"measurement": "PH", "setting": "[1]; salt 0.16 M, day 12", "value": 2.8}, {"measurement": "PH", "setting": "[1]; salt 0.16 M, day 15", "value": 2.5}, {"measurement": "PH", "setting": "[1]; salt 0.16 M, day 18", "value": 2.5}, {"measurement": "PH", "setting": "[1]; salt 0.16 M, day 20", "value": 2.5}, {"measurement": "PH", "setting": "[1]; salt 0.16 M, day 24", "value": 2.0}, {"measurement": "PH", "setting": "[1]; salt 0.16 M, day 28", "value": 1.7}, {"measurement": "PH", "setting": "[1]; salt 0.16 M, day 30", "value": 1.6}, {"measurement": "PH", "setting": "[1]; salt 0.16 M, day 40", "value": 1.3}, {"measurement": "PH", "setting": "[1]; salt 0.33 M, day 0", "value": 6.0}, {"measurement": "PH", "setting": "[1]; salt 0.33 M, day 2", "value": 6.0}, {"measurement": "PH", "setting": "[1]; salt 0.33 M, day 6", "value": 5.5}, {"measurement": "PH", "setting": "[1]; salt 0.33 M, day 9", "value": 5.0}, {"measurement": "PH", "setting": "[1]; salt 0.33 M, day 12", "value": 3.0}, {"measurement": "PH", "setting": "[1]; salt 0.33 M, day 15", "value": 3.0}, {"measurement": "PH", "setting": "[1]; salt 0.33 M, day 18", "value": 3.0}, {"measurement": "PH", "setting": "[1]; salt 0.33 M, day 20", "value": 2.5}, {"measurement": "PH", "setting": "[1]; salt 0.33 M, day 24", "value": 2.5}, {"measurement": "PH", "setting": "[1]; salt 0.33 M, day 28", "value": 1.9}, {"measurement": "PH", "setting": "[1]; salt 0.33 M, day 30", "value": 1.7}, {"measurement": "PH", "setting": "[1]; salt 0.33 M, day 40", "value": 1.4}, {"measurement": "PH", "setting": "[1]; salt 0.56 M, day 0", "value": 6.0}, {"measurement": "PH", "setting": "[1]; salt 0.56 M, day 2", "value": 6.0}, {"measurement": "PH", "setting": "[1]; salt 0.56 M, day 6", "value": 6.0}, {"measurement": "PH", "setting": "[1]; salt 0.56 M, day 9", "value": 6.0}, {"measurement": "PH", "setting": "[1]; salt 0.56 M, day 12", "value": 6.0}, {"measurement": "PH", "setting": "[1]; salt 0.56 M, day 15", "value": 6.0}, {"measurement": "PH", "setting": "[1]; salt 0.56 M, day 18", "value": 6.0}, {"measurement": "PH", "setting": "[1]; salt 0.56 M, day 20", "value": 6.0}, {"measurement": "PH", "setting": "[1]; salt 0.56 M, day 24", "value": 6.0}, {"measurement": "PH", "setting": "[1]; salt 0.56 M, day 28", "value": 6.0}, {"measurement": "PH", "setting": "[1]; salt 0.56 M, day 30", "value": 6.0}, {"measurement": "PH", "setting": "[1]; salt 0.56 M, day 40", "value": 5.8}, {"measurement": "pH", "setting": "[2]; day 0", "value": 6.0}, {"measurement": "pH", "setting": "[2]; day 10", "value": 5.9}, {"measurement": "pH", "setting": "[2]; day 20", "value": 5.8}, {"measurement": "pH", "setting": "[2]; day 30", "value": 5.8}, {"measurement": "pH", "setting": "[2]; day 40", "value": 5.8}, {"measurement": "pH", "setting": "[2]; day 90", "value": 5.8}, {"measurement": "efficacy of the treatment with respect to that with SLS", "setting": "[3]; 33 g/l NaCl vs 20 mg/l SLS, possibly due to the different concentrations", "value": "greater efficacy"}, {"measurement": "inhibition of the acidification of water in contact with elemental sulfur", "setting": "[3]; 33 g/l NaCl, 20 mg/l SLS", "value": "capable of inhibiting the acidification"}, {"measurement": "O.D.", "setting": "[3]; day 0", "value": 0.014}, {"measurement": "p.H.", "setting": "[3]; day 0", "value": 6.0}, {"measurement": "O.D.", "setting": "[3]; day 3", "value": 0.015}, {"measurement": "p.H.", "setting": "[3]; day 3", "value": 6.0}, {"measurement": "O.D.", "setting": "[3]; day 5", "value": 0.017}, {"measurement": "p.H.", "setting": "[3]; day 5", "value": 6.0}, {"measurement": "O.D.", "setting": "[3]; day 8", "value": 0.023}, {"measurement": "p.H.", "setting": "[3]; day 8", "value": 5.8}, {"measurement": "O.D.", "setting": "[3]; day 11", "value": 0.028}, {"measurement": "p.H.", "setting": "[3]; day 11", "value": 5.8}, {"measurement": "O.D.", "setting": "[3]; day 16", "value": 0.025}, {"measurement": "p.H.", "setting": "[3]; day 16", "value": 5.8}, {"measurement": "O.D.", "setting": "[3]; day 21", "value": 0.026}, {"measurement": "p.H.", "setting": "[3]; day 21", "value": 5.8}, {"measurement": "O.D.", "setting": "[3]; day 23", "value": 0.022}, {"measurement": "p.H.", "setting": "[3]; day 23", "value": 5.8}, {"measurement": "O.D.", "setting": "[3]; day 28", "value": 0.022}, {"measurement": "p.H.", "setting": "[3]; day 28", "value": 5.8}, {"measurement": "O.D.", "setting": "[3]; day 31", "value": 0.026}, {"measurement": "p.H.", "setting": "[3]; day 31", "value": 5.8}]}]}
